Measurements published in patent US9034874B2, “Carbamate/urea derivatives” (NOVARTIS AG, priority 2012, dated 2015).

Legend:
human H3 receptors = human H3 receptors (Homo sapiens (Human), UniProt Q9Y5N1); assay: Potency assessment: blockade of (R)-alpha-methylhistamine-mediated cAMP production (LANCE Ultra cAMP kit); assay type: cell-based; details: CHO cells expressing human H3 receptors
Method: The potency of compounds of the invention as H3 receptor antagonists can be assessed by measuring the blockade of (R)-alpha-methylhistamine-mediated cAMP production utilizing a LANCE Ultra cAMP kit (PE #TRF0263) in CHO cells expressing human H3 receptors (GenBank: BC096840; Strausberg R L et al, Proc. Natl. Acad. Sci. U.S.A. 99(26), 16899-16903; 2002).
2. Preparation of assay plate: Different concentrations of the compounds of the invention (0.01-1000 nM), H3 positive controls and cAMP calibration standards; […] Forskolin (CALBIOCHEM #344270); 5 μM (R)-alpha-methylhistamine (H3 receptor agonist); 1% DMSO (SIGMA #D2650); total volume: 95 nl.
3. Preparation of the cell solution: Collect cells with stimulation buffer, final density: 100,000 cells/ml.
4. Reaction: (a) transfer 10 μl of cell solution to assay plate, (b) centrifuge at 600 rpm for 3 min and incubate 50 min at room temperature, (c) add 5 μL 4× Eu-cAMP tracer solution (60 μl Eu-cAMP tracer stock solution+2.94 ml cAMP detection buffer) and 5 μL 4× ULight™-anti-cAMP solution (20 μl […]+2.98 ml cAMP detection buffer) to assay plate.
5. Reading plate on EnVision: flash energy: 100%; excitation filter: 111 UV2 320; emission filter: 203 (Eu 615) and 205 (APC 665); number of laser flashes: 20; window: 100 μs; laser mirror module: 445 or 446; laser cycle: 16,600 μs.
6. Data analysis by GraphPad Prism: log (compound concentration) vs. response; variable slope.

tele-methylhistamine = assay: Effects on brain tele-methylhistamine levels; assay type: in vivo, rat; details: male Sprague-Dawley rats, oral, frontal cortex
Method: Compounds of the invention were dissolved in 20% 2-hydroxyl-beta-cyclodextran (HBC) and then sonicated briefly until there is little or no suspension in the solution. Animals (male Sprague-Dawley rats at the age of 8 weeks) were orally dosed with test compounds I hour or other longer time points before they were sacrificed using CO2.
A cardiac puncture was performed to collect blood sample from the cardiac cavity. The collected blood was immediately mixed with EDTA-K2 20 μl/ml to avoid blood clotting. The blood samples in tubes were then centrifuged (15 mim, 6000 rpm) and the plasma transferred to new tubes and then temporarily kept in dry ice until they were stored in a −70° C. freezer.
CSF collection: CSF samples were taken from the foramen magnum of the animal (using a #0.5 intravenous needle), and the CSF sample were kept in dry ice.
The rat brain were taken out of the skull and rinsed with ice-cold saline first. The frontal cortex was separated from the rest of the brain on top of a petri dish with ice underneath. The wet weight of the frontal cortex was weighed and recorded immediately. The frontal cortex sample was then kept in dry ice until they are transferred to a −70° C. freezer.
Bioanalytical Methods for Tele-Methyl Histamine and Compounds:
• Instrument: Agilent 6410, triple quadrupole mass spectrometer • Matrix: rat plasma, frontal cortex homogenate and cerebrospinal fluid (CSF) • Analyte: H3 compounds. • Internal standard: Dexamethasone HPLC Conditions Mobile Phase A: H2O—0.1% NH3.H2O: • Mobile phase B: MeOH-0.1% NH3.H2O • Column: Ultimate XB-C18 (2.1×50 mm, 5 μm) • Flow rate: 0.45 mL/min, temperature: 40° C. MS Conditions: • ESI: positive ion • MRM detection • Dexamethasone: [M+H]+m/z 393.3→373.2; CE: 4; Fragmentor: 110 Sample Preparation: Frontal Cortex:
the brain sample was homogenized for 2 min with 3 volumes (v/w) of homogenizing solution (EtOH:PBS=85:15), and then centrifuged at 12,000 rpm for 5 min. […]

Sequence of human H3 receptors (Q9Y5N1 whole entry): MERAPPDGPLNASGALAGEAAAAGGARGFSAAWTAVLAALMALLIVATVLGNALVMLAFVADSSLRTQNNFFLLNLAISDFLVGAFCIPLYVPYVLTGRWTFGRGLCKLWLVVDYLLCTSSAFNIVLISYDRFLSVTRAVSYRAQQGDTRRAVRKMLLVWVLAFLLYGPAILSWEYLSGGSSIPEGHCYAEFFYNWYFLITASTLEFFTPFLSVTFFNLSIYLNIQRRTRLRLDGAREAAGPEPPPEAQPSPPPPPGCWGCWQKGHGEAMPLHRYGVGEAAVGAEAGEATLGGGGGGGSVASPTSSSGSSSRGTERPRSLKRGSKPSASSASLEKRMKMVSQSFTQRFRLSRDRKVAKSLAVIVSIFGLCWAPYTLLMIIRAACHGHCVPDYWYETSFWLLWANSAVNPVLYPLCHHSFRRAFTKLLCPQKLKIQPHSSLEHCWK

Row | Ki (human H3 receptors) | SMILES | % change in tele-methylhistamine brain levels for 10 mg/kg @ 1 h (tele-methylhistamine)
1 | 1.3 nM | O=C(OC1CCN(c2ccc(=O)[nH]n2)CC1)N1CCN(C2CCC2)CC1 [Example 1.1, 1-(6-oxo-1,6-dihydropyridazin-3-yl)piperidin-4-yl 4-cyclobutylpiperazine-1-carboxylate] | 72%
2 | 2.4 nM | CC(C)N1CCN(C(=O)OC2CCN(c3ccc(=O)n(C)n3)CC2)CC1 [Example 1.2, 1-(1-methyl-6-oxo-1,6-dihydropyridazin-3-yl)piperidin-4-yl 4-isopropylpiperazine-1-carboxylate] | 138%
3 | 1.2 nM | CC(C)N1CCN(C(=O)OC2CCN(c3ccc(=O)[nH]n3)CC2)CC1 [Example 1.3, 1-(6-oxo-1,6-dihydropyridazin-3-yl)piperidin-4-yl 4-isopropylpiperazine-1-carboxylate] | 115%
